Read-outs that look alike come from different tables or passages of the source.

Holding throughout (assay type): cell-based
One data set is described as follows: in vitro. The note with it: for CC50 at 24 h: African green monkey; for CC50 at 72 h: dog. How it is done:
The microtetrazolium test (MTT) was used to study the cytotoxicity of the compounds [24]. The experiment was repeated three times. Vero cells were seeded in 96-well plates in Eagles minimal essential medium (MEM) supplemented with 10% FBS. After 24 h, the media was removed, and the wells were washed with saline. Compounds were dissolved in DMSO, and a series of three-fold dilutions of each compound and pleconaril (1000-4 µg/mL) in MEM without FBS were prepared and added to the cells in quadriplicates (200 µL per well). The maximal concentration of DMSO was 0.5% MEM with 0.5% DMSO and was added to cell control wells. Cells were incubated for 24 h at 37 °C in 5% CO2 in the presence of the dissolved compounds. The cells were then washed with saline, and a solution of 3-(4,5-dimethylthiazolyl-2) 2,5-diphenyltetrazolium bromide (ICN Biochemicals Inc., Aurora, OH, USA) (0.5 µg/mL) in MEM was added to the wells (100 µL per well). After 2 h of incubation at 37 °C in 5% CO2, the supernatant from wells was discarded, and the formazan residue was dissolved in DMSO (100 µL per well). The optical density of cells was then measured on a Victor 21,440 multifunctional reader (Perkin Elmer, Turku, Finland) at a wavelength of 535 nm and plotted against the concentration of the compounds to generate the dose–response curve. The 50% cytotoxic dose (CC50) of each compound (i.e., the compound concentration that causes the death of 50% of cells in a culture, or decreases the optical density twice as compared to the control wells) was calculated using four-parameter logistic nonlinear regression model. For some compounds (35a and 35b) cytotoxicity towards MDCK cell line was determined using the procedure above, but the cells were exposed to compounds for 72 h.

Data set [1] concerns coxsackievirus B3 strain Nancy. Description: Viral yield reduction assay against CVB3 in Vero cells. The note with it: for IC50: Vero cells, viral yield reduction, MOI 0.01, 24 h, read-out: IC50 towards CVB3.
Data set [2] has as its system influenza virus A/Puerto Rico/8/34 (H1N1). Description: Antiviral activity against IAV, hemagglutination test in MDCK cells. The settings on record: for IC50: MDCK cells, hemagglutination test, 72 h, read-out: IC50 Towards IAV.

`CCOC(=O)c1cc(CCCSc2ccc(-c3noc(C(F)(F)F)n3)cc2C)on1` [Compound 6a, 3-(3-Methyl-4-((3-(3-carbethoxy-isoxazol-5-yl)propyl)thio)phenyl)-5-(trifluoromethyl)-1,2,4-oxadia-zole] came in with a CC50 at 24 h in the data set “in vitro” of 485 ± 20.1 µM. Also, in data set [1] (Enterovirus B), the IC50 stood at 21 ± 1.5 µM.

As for `Cc1cc(CCCSc2ccc(-c3noc(C(F)(F)F)n3)cc2C)on1` [Compound 6b, 3-(3-Methyl-4-((3-(3-methylisoxazol-5-yl)propyl)thio)phenyl)-5-(trifluoromethyl)-1,2,4-oxadiazole], the cytotoxic concentration (CC50) at 24 h in the data set “in vitro” was greater than 2610 µM. Also, the IC50 in data set [1] (Enterovirus B) was found to be 15.6 ± 1.4 µM.

For `Cc1cc(-c2noc(C(F)(F)F)n2)ccc1SCCCc1cc(C(=O)N(C)C)no1` [Compound 7, N,N-dimethyl-5-(3-((2-methyl-4-(5-(trifluoromethyl)-1,2,4-oxadiazol-3-yl)phenyl)thio)propyl)isoxa-zole-3-carboxamide], the CC50 at 24 h in “in vitro” was greater than 2270 µM. Besides, the IC50 in data set [1] (Enterovirus B) came to 18.6 ± 1.3 µM.

In turn, `CCOC(=O)c1cc(CCC(=O)Oc2ccc(-c3noc(C(F)(F)F)n3)cc2C)on1` [Compound 12a, Ethyl 5-(3-(2-methyl-4-(5-(trifluoromethyl)-1,2,4-oxadiazol-3-yl)phenoxy)-3-oxopropyl)-isoxazole-3-carboxylate] displayed a CC50 at 24 h in “in vitro” of 683 ± 30.4 µM. For the same compound, the IC50 in data set [1] (Enterovirus B) came to 9.1 ± 0.8 µM.

For the compound `Cc1cc(CCC(=O)Oc2ccc(-c3noc(C(F)(F)F)n3)cc2C)on1` [Compound 12b, 2-Methyl-4-(5-(trifluoromethyl)-1,2,4-oxadiazol-3-yl)phenyl 3-(3-methylisoxazol-5-yl)propanoate], half-maximal cytotoxicity in the data set “in vitro” (CC50 at 24 h) was put at 464 ± 30.3 µM. Besides, the IC50 in data set [1] (Enterovirus B) stood at 13.1 ± 0.9 µM.

In turn, `CCOC(=O)c1cc(CCC(=O)Nc2ccc(-c3noc(C(F)(F)F)n3)cc2C)on1` [Compound 20a, Ethyl 5-(3-((2-methyl-4-(5-(trifluoromethyl)-1,2,4-oxadiazol-3-yl)phenyl)amino)-3-oxopropyl)isoxa-zole-3-carboxylate] returned a CC50 at 24 h in “in vitro” of 1720 ± 70.5 µM. In addition, in data set [1] (Enterovirus B), the IC50 was 18.2 ± 1.6 µM.

Compound `Cc1cc(CCC(=O)Nc2ccc(-c3noc(C(F)(F)F)n3)cc2C)on1` [Compound 20b, N-(2-Methyl-4-(5-(trifluoromethyl)-1,2,4-oxadiazol-3-yl)phenyl)-3-(3-methylisoxazol-5-yl)propan-amide] showed a CC50 at 24 h in the data set “in vitro” of 1740 ± 120 µM. Further, the IC50 in data set [1] (Enterovirus B) is 76.2 ± 5.3 µM.

`Cc1cc(-c2noc(C(F)(F)F)n2)ccc1NC(=O)CCc1cc(C(=O)N(C)C)no1` [Compound 21, N,N-dimethyl-5-(3-((2-methyl-4-(5-(trifluoromethyl)-1,2,4-oxadiazol-3-yl)phenyl)amino)-3-oxopro-pyl)isoxazole-3-carboxamide]: half-maximal cytotoxicity in the data set “in vitro” (CC50 at 24 h) was put at 1690 ± 70.7 µM. Moreover, the IC50 in data set [1] (Enterovirus B) stood at 6.8 µM.

Take `Cc1cc(-c2noc(C(F)(F)F)n2)ccc1N1CCN(c2cc(C(=O)N(C)C)no2)CC1` [Compound 28a, N,N-Dimethyl-5-(4-(2-methyl-4-(5-(trifluoromethyl)-1,2,4-oxadiazol-3-yl)phenyl)piperazin-1-yl)iso-xazole-3-carboxamide]: the CC50 at 24 h in the data set “in vitro” worked out at 1870 ± 90.4 µM. Further, the IC50 in data set [1] (Enterovirus B) came out at 9.1 ± 0.7 µM.

For the compound `Cc1cc(CN2CCN(c3ccc(-c4noc(C(F)(F)F)n4)cc3C)CC2)on1` [Compound 28b, 3-(3-Methyl-4-(4-((3-methylisoxazol-5-yl)methyl)piperazin-1-yl)phenyl)-5-(trifluoromethyl)-1,2,4-oxadiazole], the CC50 at 24 h in “in vitro” turned out to be 2460 ± 171 µM. The IC50 in data set [1] (Enterovirus B) was determined as 41.7 ± 2.1 µM.

On to `CCOC(=O)c1cc(N2CCN(c3ccc(-c4noc(C(F)(F)F)n4)cc3C)CC2)on1` [Compound 28c, Ethyl 5-(4-(2-methyl-4-(5-(trifluoromethyl)-1,2,4-oxadiazol-3-yl)phenyl)piperazin-1-yl)isoxazole-3-carboxylate], for which the CC50 at 24 h in the data set “in vitro” is roughly 53.2 µM. Besides, the IC50 in data set [1] (Enterovirus B) amounted to 48.7 ± 4.4 µM.

Turning to `Cc1cc(-c2noc(C(F)(F)F)n2)ccc1N1CCN(C(=O)c2cc(-c3ccccc3)no2)CC1` [Compound 35a, (4-(2-Methyl-4-(5-(trifluoromethyl)-1,2,4-oxadiazol-3-yl)phenyl)piperazin-1-yl)(3-phenylisoxazol--5-yl)methanone], in “in vitro”, the 50% cytotoxic concentration (CC50) at 24 h stood at 1520 ± 70.3 µM and half-maximal cytotoxicity (CC50 at 72 h) was put at 1450 ± 102 µM. For the same compound, in data set [2], the “activity against the influenza virus A (in words)” value was “inactive” and the IC50 was greater than 493 µM. Also, the “activity towards CVB3 (in words)” value in data set [1] was “inactive”. The IC50 in data set [1] (Enterovirus B) was greater than 620 µM.

In “in vitro”, `Cc1cc(-c2noc(C(F)(F)F)n2)ccc1N1CCN(C(=O)c2c(-c3ccccc3)noc2C)CC1` [Compound 35b, (5-Methyl-3-phenylisoxazol-4-yl)(4-(2-methyl-4-(5-(trifluoromethyl)-1,2,4-oxadiazol-3-yl)phenyl)pi-perazin-1-yl)methanone] returned a CC50 at 24 h of 2010 ± 121 µM and a CC50 at 72 h greater than 604 µM. Moreover, in data set [2], the “activity against the influenza virus A (in words)” value is “inactive” and the half-maximal inhibitory concentration (IC50) was greater than 604 µM. Further, the IC50 in data set [1] (Enterovirus B) was 16.1 ± 1.1 µM.

`Cc1cc(CCCOc2c(C)cc(-c3noc(C(F)(F)F)n3)cc2C)on1` [Pleconaril] had a CC50 at 24 h in “in vitro” of 2400 ± 160 µM. The IC50 in data set [1] (Enterovirus B) was 18.4 ± 1.5 µM.

With “Methyl 5-(4-(2-methyl-4-(5-(trifluoromethyl)-1,2,4-oxadiazol-3-yl)phenyl)piperazin-1-yl)-isoxazole--3-carboxylate [Compound 28d]”, the IC50 in data set [1] worked out at 3.9 ± 0.3 µM.

A word on the CC50: it is the concentration giving 50% cytotoxicity. As usually defined, the IC50 is the concentration that gives 50% inhibition.

(Values after PMC7144106, “The Evolution of Pleconaril: Modified O-Alkyl Linker Analogs Have Biological Activity towards Coxsackievirus B3 Nancy” (Molecules, 2020).)
